Data reported in ChEMBL document CHEMBL5726286, “3-oxo-tetrahydro-furo[3,2-B]pyrrol-4(5H)-yl) derivatives I” (2017).

Tests used:
Cathepsin K = biological target: T1, Cathepsin K (Homo sapiens, UniProt P43235); assay: (§1) Enzyme Assay: Recombinant human cathepsins (CatS, CatK, CatL) were purchased from a Enzo Life Sciences. All assays were carried out in 96-well format using a buffer of 50 mM KH2PO4, 50 mM NaCl, 2 mM EDTA, 0.5 mM DTT and 1% Triton-X-100, pH 6.5 for Cathepsin S and a buffer of 50 mM NaOAc, 10 mM EDTA, 1 mM DTT and 0.01% Triton-X-100, pH 5.5 for CatK/L/B. For CatS, the enzyme (0.0007 mU/well) was incubated with fluorogeninc substrate (Z-VVR-AMC, 5 μM) at RT for 10 min. For CatK the enzyme (0.00175 mU/well) was incubated with fluorogeninc substrate (Z-FR-AMC, 40 μM) at RT for 10 min. For CatL, the enzyme (0.000874 mU/well) was incubated with fluorogeninc substrate (Z-VVR-AMC, 40 μM) at RT for 10 min. Flourogenic substrate turnover was detected using a microplate reader (Synergy H4, BioTek). Ki values were calculated using the Cheng Prusoff equation (Cheng & Prosoff 1973).
T1 sequence (P43235 whole entry): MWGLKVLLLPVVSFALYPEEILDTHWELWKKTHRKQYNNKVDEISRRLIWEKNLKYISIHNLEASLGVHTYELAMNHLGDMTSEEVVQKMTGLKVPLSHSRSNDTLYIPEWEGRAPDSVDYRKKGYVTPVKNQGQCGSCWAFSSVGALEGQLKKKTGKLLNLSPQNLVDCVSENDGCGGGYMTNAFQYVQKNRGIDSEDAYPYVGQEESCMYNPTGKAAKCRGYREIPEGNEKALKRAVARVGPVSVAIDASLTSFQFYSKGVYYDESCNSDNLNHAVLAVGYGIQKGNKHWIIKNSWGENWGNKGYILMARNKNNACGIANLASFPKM

Cathepsin S = Cathepsin S (Homo sapiens, UniProt P25774); assay: as §1
Sequence of Cathepsin S (P25774 whole entry): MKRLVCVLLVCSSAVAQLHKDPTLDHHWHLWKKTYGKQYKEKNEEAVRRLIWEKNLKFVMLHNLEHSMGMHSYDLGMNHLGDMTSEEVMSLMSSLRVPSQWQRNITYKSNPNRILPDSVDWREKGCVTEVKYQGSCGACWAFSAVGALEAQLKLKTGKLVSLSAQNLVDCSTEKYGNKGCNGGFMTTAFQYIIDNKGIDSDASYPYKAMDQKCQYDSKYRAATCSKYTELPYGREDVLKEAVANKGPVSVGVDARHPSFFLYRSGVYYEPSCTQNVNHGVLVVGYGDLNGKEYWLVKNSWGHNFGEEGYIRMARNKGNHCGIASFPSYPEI

Row | Ki (Cathepsin K) | Ki (Cathepsin S) | Compound
1 | 262 nM | 699 nM | O=C(N[C@H](C(=O)N1C[C@H](Cl)[C@H]2OCC(=O)[C@H]21)C1CCCCC1)c1ccc(-c2ccncn2)o1
2 | 278 nM | 527 nM | O=C(N[C@H](C(=O)N1C[C@H](Cl)[C@H]2OCC(=O)[C@H]21)C1CCCCC1)c1cnc(-c2ccnnc2)o1
3 | 9 nM | 238 nM | Cc1nccc(-c2ccc(C(=O)N[C@H](C(=O)N3C[C@H](Cl)[C@H]4OCC(=O)[C@H]43)C3CCCCC3)s2)n1
4 | 16 nM | 344 nM | COc1ccc(-c2ccc(C(=O)N[C@H](C(=O)N3C[C@H](Cl)[C@H]4OCC(=O)[C@H]43)C3CCCCC3)s2)nn1
5 | 14 nM | – | O=C(N[C@H](C(=O)N1C[C@H](Cl)[C@H]2OCC(=O)[C@H]21)C1CCCCC1)c1nnc(-c2ccncc2)s1

Row | Compound | Ki (Cathepsin K) | Ki (Cathepsin S)
6 | O=C(N[C@H](C(=O)N1C[C@H](Cl)[C@H]2OCC(=O)[C@H]21)C1CCCCC1)c1ccc(-c2cccnc2)o1 | 54 nM | 612 nM
